Assay results: US6362369B1, “Phthalic acid diamide derivatives fluorine-containing aniline compounds as starting material, agricultural and horticultural insecticides, and a method for application of the insecticides” (Nihon Nohyaku Co., Ltd., priority 1997, dated 2002)

Tests used:
Type in all cases: in vivo
[1] = tested on: common cutworm (Spodoptera Litura); test: Insecticidal effect on common cutworm (Test Example 2); conditions: 500 ppm, 25° C.; for Insecticidal effect, Test Example 2: cabbage leaf immersed; for Insecticidal effect, Test Example 2 / Insecticidal effect on common cutworm (Test Example 2), judged grade: eight days after inoculation; for Insecticidal effect on common cutworm (Test Example 2), judged grade / Insecticidal effect (Test Example 2), judged from mortality: cabbage leaf dip; for Insecticidal effect on common cutworm (Test Example 2), judged grade: second-instar larvae; for Insecticidal effect (Test Example 2), judged from mortality: 8 days after inoculation
Procedure, shortened: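 Mortality was scored 8 days post-inoculation, using three groups of 10 second-instar larvae kept at 25 °C in closed 9 cm dishes on air-dried treated material. The insecticidal effect was graded from calculated mortality by a set criterion.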

[2] = tested on: rice leafroller (Cnaphalocrocis medinalis); test: Insecticidal effect on rice leafroller (Test Example 3); conditions: 500 ppm, 25° C., humidity 70%; for Insecticidal effect, Test Example 3: rice lamina immersed; for Insecticidal effect, Test Example 3 / Insecticidal effect on rice leafroller (Test Example 3), judged grade: four days after inoculation; for Insecticidal effect on rice leafroller (Test Example 3), judged grade / Insecticidal effect (Test Example 3), judged from mortality: rice lamina dip; for Insecticidal effect on rice leafroller (Test Example 3), judged grade: third-instar larvae; for Insecticidal effect (Test Example 3), judged from mortality: 4 days after inoculation
Procedure, shortened: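 Insecticidal effect is judged by a predefined criterion from dead/alive counts four days after infesting air-dried lamina with third-instar larvae, kept on moistened filter paper at 25° C, 70% humidity.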

[3] = tested on: diamondback moth (Plutella xylostella); test: Insecticidal effect on diamondback moth (Test Example 1); conditions: for Insecticidal effect, Test Example 1 / Insecticidal effect (Test Example 1), judged from mortality: diamondback moth; for Insecticidal effect on diamondback moth (Test Example 1), judged grade: mortality judged according to the criterion shown in Test Example 1; for Insecticidal effect (Test Example 1), judged from mortality: judged by the criterion of Test Example 1
Procedure, shortened: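 Triplicate groups of 10 insects were scored: six days after immersion of oviposited Chinese cabbage seedlings and holding at 25 °C post air-drying, hatched larvae were counted. Mortality derived from these counts and insecticidal effect judged by a set criterion.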

[4] = second-instar larvae of common cutworm
[5] = third-instar larvae of rice leafroller
[6] = judged by the mortality criterion of Test Example 1
[7] = common cutworm second-instar larvae
[8] = rice leafroller third-instar larvae
[9] = mortality judged by criterion of Test Example 1

CC(C)NC(=O)c1c(I)cccc1C(=O)Nc1ccc(OC(F)F)c(F)c1 [compound 382]
Insecticidal effect, Test Example 2 [1, 4]: B (99-90)
Insecticidal effect, Test Example 3 [2, 5]: A (100)
Insecticidal effect, Test Example 1 [3, 6]: A (100)

CC(C)NC(=O)c1cccc(Br)c1C(=O)Nc1ccc(C(F)(F)F)cc1 [compound 301]
Insecticidal effect, Test Example 2 [1, 4]: A (100)
Insecticidal effect, Test Example 3 [2, 5]: D (79-50)
Insecticidal effect, Test Example 1 [3, 6]: A (100)

Cc1cc(OC(F)(F)C(F)Cl)ccc1NC(=O)c1c(Cl)cccc1C(=O)NC(C)C (stereo not drawn) [compound 241]
Insecticidal effect, Test Example 2 [1, 4]: B (99-90)
Insecticidal effect, Test Example 3 [2, 5]: A (100)
Insecticidal effect, Test Example 1 [3, 6]: A (100)

Cc1cc(SC(F)(F)C(F)(F)C(F)(F)F)ccc1NC(=O)c1cccc(I)c1C(=O)NC(C)C [compound 403]
Insecticidal effect, Test Example 2 [1, 4]: B (99-90)
Insecticidal effect, Test Example 3 [2, 5]: A (100)
Insecticidal effect, Test Example 1 [3, 6]: A (100)

CC(C)(C)NC(=O)c1c(I)cccc1C(=O)Nc1ccc2c(c1)OC(F)(F)C(F)(F)O2 [compound 1067]
Insecticidal effect, Test Example 2 [1, 7]: A (100)
Insecticidal effect, Test Example 3 [2, 8]: A (100)
Insecticidal effect, Test Example 1 [3, 9]: A (100)

Cc1cc(C(F)(F)C(F)(F)F)ccc1NC(=O)c1ccccc1C(=O)NC(C)CO (stereo not drawn) [compound 1294]
Insecticidal effect, Test Example 2 [1, 7]: A (100)
Insecticidal effect, Test Example 3 [2, 8]: A (100)
Insecticidal effect, Test Example 1 [3, 9]: A (100)

CC(C)NC(=O)c1c(Cl)cccc1C(=O)Nc1ccc(Cl)cc1Cl [compound 112]
Insecticidal effect, Test Example 2 [1, 4]: A (100)
Insecticidal effect, Test Example 3 [2, 5]: A (100)
Insecticidal effect, Test Example 1 [3, 6]: A (100)

CC(C)NC(=O)c1c(I)cccc1C(=O)Nc1ccc2c(c1)OC(F)C(F)(F)O2 (stereo not drawn) [compound 1148]
Insecticidal effect, Test Example 2 [1, 7]: A (100)
Insecticidal effect, Test Example 3 [2, 8]: A (100)
Insecticidal effect, Test Example 1 [3, 9]: A (100)

COc1ccc(NC(=O)c2cccc([N+](=O)[O-])c2C(=O)NC(C)C)c(C)c1C [compound 689]
Insecticidal effect on common cutworm (Test Example 2), judged grade [1]: D (79-50)
Insecticidal effect on rice leafroller (Test Example 3), judged grade [2]: A (100)
Insecticidal effect on diamondback moth (Test Example 1), judged grade [3]: A (100)

Cc1cc(OC(F)(F)C(Cl)(Cl)Cl)ccc1NC(=O)c1cccc(Cl)c1C(=O)NC(C)C [compound 129]
Insecticidal effect, Test Example 2 [1, 4]: A (100)
Insecticidal effect, Test Example 3 [2, 5]: A (100)
Insecticidal effect, Test Example 1 [3, 6]: A (100)

Cc1cc(Cl)ccc1NC(=O)c1ccccc1C(=O)NC(C)C [compound 50]
Insecticidal effect, Test Example 2 [1, 4]: A (100)
Insecticidal effect, Test Example 3 [2, 5]: A (100)
Insecticidal effect, Test Example 1 [3, 6]: A (100)

CCCN(C)C(=O)c1c(I)cccc1C(=O)Nc1ccc(C(F)(F)C(F)(F)F)cc1C [compound 1069]
Insecticidal effect, Test Example 2 [1, 7]: A (100)
Insecticidal effect, Test Example 3 [2, 8]: A (100)
Insecticidal effect, Test Example 1 [3, 9]: A (100)

CC(C)NC(=O)c1c(F)cccc1C(=O)Nc1cccc(Cl)c1Cl [compound 488]
Insecticidal effect on common cutworm (Test Example 2), judged grade [1]: A (100)
Insecticidal effect on rice leafroller (Test Example 3), judged grade [2]: A (100)
Insecticidal effect on diamondback moth (Test Example 1), judged grade [3]: A (100)

CC(C)NC(=O)c1cccc(I)c1C(=O)Nc1ccc(C(F)(F)C(F)(F)C(F)(F)F)cc1 [compound 417]
Insecticidal effect, Test Example 2 [1, 4]: A (100)
Insecticidal effect, Test Example 3 [2, 5]: A (100)
Insecticidal effect, Test Example 1 [3, 6]: A (100)

CC(C)NC(=O)c1c(I)cccc1C(=O)Nc1ccc(SCC(F)(F)F)cc1 [compound 355]
Insecticidal effect, Test Example 2 [1, 4]: C (89-80)
Insecticidal effect, Test Example 3 [2, 5]: A (100)
Insecticidal effect, Test Example 1 [3, 6]: A (100)

CC(C)(C)NC(=O)c1c(Cl)cccc1C(=O)Nc1ccc(C(F)(F)C(F)(F)F)cc1F [compound 1448]
Insecticidal effect (Test Example 2), judged from mortality [1, 4]: A (100)
Insecticidal effect (Test Example 3), judged from mortality [2, 5]: A (100)
Insecticidal effect (Test Example 1), judged from mortality [3]: A (100)

C#CC(C)(C)NC(=O)c1c(I)cccc1C(=O)Nc1ccc(OC(F)(F)F)cc1C [compound 1634]
Insecticidal effect (Test Example 2), judged from mortality [1, 4]: A (100)
Insecticidal effect (Test Example 3), judged from mortality [2, 5]: A (100)
Insecticidal effect (Test Example 1), judged from mortality [3]: A (100)

Cc1cc(C(F)(F)C(F)(F)F)ccc1NC(=O)c1cccc(Cl)c1C(=O)NC(C)(C)C#Cc1ccc(OC(F)(F)F)cc1 [compound 1633]
Insecticidal effect (Test Example 2), judged from mortality [1, 4]: A (100)
Insecticidal effect (Test Example 3), judged from mortality [2, 5]: A (100)
Insecticidal effect (Test Example 1), judged from mortality [3]: A (100)

CC(C)NC(=O)c1c(Cl)cccc1C(=O)Nc1ccc(C(O)(C(F)(F)F)C(F)(F)F)cc1 [compound 980]
Insecticidal effect, Test Example 2 [1, 7]: A (100)
Insecticidal effect, Test Example 3 [2, 8]: A (100)
Insecticidal effect, Test Example 1 [3, 9]: A (100)

Cc1cc(OC(F)F)ccc1NC(=O)c1cccc(I)c1C(=O)NCc1ccccc1 [compound 1430]
Insecticidal effect, Test Example 2 [1, 7]: D (79-50)
Insecticidal effect, Test Example 3 [2, 8]: A (100)
Insecticidal effect, Test Example 1 [3, 9]: A (100)

CC(C)NC(=O)c1c(Cl)cccc1C(=O)Nc1ccc(C(F)(C(F)(F)F)C(F)(F)F)cc1 [compound 89]
Insecticidal effect, Test Example 2 [1, 4]: B (99-90)
Insecticidal effect, Test Example 3 [2, 5]: A (100)
Insecticidal effect, Test Example 1 [3, 6]: A (100)

CC(C)NC(=O)c1c(C(=O)Nc2ccc(SC(F)(F)C(F)(F)Br)cc2)cccc1[N+](=O)[O-] [compound 628]
Insecticidal effect on common cutworm (Test Example 2), judged grade [1]: B (99-90)
Insecticidal effect on rice leafroller (Test Example 3), judged grade [2]: A (100)
Insecticidal effect on diamondback moth (Test Example 1), judged grade [3]: A (100)

Cc1cc(Oc2ncc(C(F)(F)F)cc2Cl)ccc1NC(=O)c1ccccc1C(=O)NC(C)C [compound 79]
Insecticidal effect, Test Example 2 [1, 4]: A (100)
Insecticidal effect, Test Example 3 [2, 5]: D (79-50)
Insecticidal effect, Test Example 1 [3, 6]: A (100)

CCN(CC)C(=O)c1c(I)cccc1C(=O)Nc1ccc(OC(F)(F)F)cc1 [compound 1534]
Insecticidal effect (Test Example 2), judged from mortality [1, 4]: A (100)
Insecticidal effect (Test Example 3), judged from mortality [2, 5]: A (100)
Insecticidal effect (Test Example 1), judged from mortality [3]: A (100)

Cc1c(Cl)ccc(NC(=O)c2cccc([N+](=O)[O-])c2C(=O)NC(C)C)c1C [compound 669]
Insecticidal effect on common cutworm (Test Example 2), judged grade [1]: D (79-50)
Insecticidal effect on rice leafroller (Test Example 3), judged grade [2]: A (100)
Insecticidal effect on diamondback moth (Test Example 1), judged grade [3]: A (100)

CC(C)NC(=O)c1c(F)cccc1C(=O)Nc1ccc(Oc2ccc(C(F)(F)F)cc2Cl)cc1F [compound 901]
Insecticidal effect on common cutworm (Test Example 2), judged grade [1]: D (79-50)
Insecticidal effect on rice leafroller (Test Example 3), judged grade [2]: A (100)
Insecticidal effect on diamondback moth (Test Example 1), judged grade [3]: A (100)

C#CC(C)(C)NC(=O)c1c(Cl)cccc1C(=O)Nc1ccc(OC(F)(F)F)cc1C [compound 1602]
Insecticidal effect (Test Example 2), judged from mortality [1, 4]: A (100)
Insecticidal effect (Test Example 3), judged from mortality [2, 5]: A (100)
Insecticidal effect (Test Example 1), judged from mortality [3]: A (100)

CCc1cc(C(F)(F)C(F)(F)F)ccc1NC(=O)c1cccc(F)c1C(=O)N(CC)CC [compound 1549]
Insecticidal effect (Test Example 2), judged from mortality [1, 4]: D (79-50)
Insecticidal effect (Test Example 3), judged from mortality [2, 5]: A (100)
Insecticidal effect (Test Example 1), judged from mortality [3]: A (100)

Cc1cc(OC(F)(F)C(F)C(F)(F)F)ccc1NC(=O)c1ccccc1C(=O)NC(C)C (stereo not drawn) [compound 65]
Insecticidal effect, Test Example 2 [1, 4]: A (100)
Insecticidal effect, Test Example 3 [2, 5]: A (100)
Insecticidal effect, Test Example 1 [3, 6]: A (100)

Cc1ccc(NC(=O)c2cccc(I)c2C(=O)NC(C)C)c(C)c1Cl [compound 364]
Insecticidal effect, Test Example 2 [1, 4]: A (100)
Insecticidal effect, Test Example 3 [2, 5]: D (79-50)
Insecticidal effect, Test Example 1 [3, 6]: A (100)

Cc1cc(OC(F)F)ccc1NC(=O)c1ccc(Br)c(Br)c1C(=O)NC(C)C [compound 338]
Insecticidal effect, Test Example 2 [1, 4]: B (99-90)
Insecticidal effect, Test Example 3 [2, 5]: A (100)
Insecticidal effect, Test Example 1 [3, 6]: A (100)

Cc1cc(Cl)ccc1NC(=O)c1c(Cl)cccc1C(=O)NC(C)C [compound 214]
Insecticidal effect, Test Example 2 [1, 4]: A (100)
Insecticidal effect, Test Example 3 [2, 5]: A (100)
Insecticidal effect, Test Example 1 [3, 6]: A (100)

CC(C)(C)NC(=O)c1c(I)cccc1C(=O)Nc1ccc(SC(F)(F)Br)cc1 [compound 1115]
Insecticidal effect, Test Example 2 [1, 7]: A (100)
Insecticidal effect, Test Example 3 [2, 8]: A (100)
Insecticidal effect, Test Example 1 [3, 9]: A (100)

CCc1cc(C(F)(F)C(F)(F)F)ccc1NC(=O)c1cccc(Cl)c1C(=O)NC(C)CC (stereo not drawn) [compound 1501]
Insecticidal effect (Test Example 2), judged from mortality [1, 4]: A (100)
Insecticidal effect (Test Example 3), judged from mortality [2, 5]: A (100)
Insecticidal effect (Test Example 1), judged from mortality [3]: A (100)

Cc1cc(C(F)(F)C(F)(F)F)ccc1NC(=O)c1cccc(Cl)c1C(=O)NCc1ccc(OC(F)(F)F)cc1 [compound 1576]
Insecticidal effect (Test Example 2), judged from mortality [1, 4]: D (79-50)
Insecticidal effect (Test Example 3), judged from mortality [2, 5]: A (100)
Insecticidal effect (Test Example 1), judged from mortality [3]: A (100)

CCC(CO)NC(=O)c1c(Cl)cccc1C(=O)Nc1ccc(C(F)(F)C(F)(F)F)cc1C (stereo not drawn) [compound 1316]
Insecticidal effect, Test Example 2 [1, 7]: A (100)
Insecticidal effect, Test Example 3 [2, 8]: A (100)
Insecticidal effect, Test Example 1 [3, 9]: A (100)
